# What was measured:
# SrtA = target: T1, SrtA (Staphylococcus aureus, UniProt Q2FV99); experiment: Reversibility of SrtA inhibition (10 × IC50, dilution, FRET assay); format: biochemical; conditions: SrtA treated with 10-fold IC50 of Tax then diluted; compared with control group (DMSO)
# T1 construct: 6xHis; made in house; host or cells: E. coli BL21 (DE3), plasmid pET28a-SrtA
# Source text: To identify novel inhibitors of SrtA, an in-house library containing 420 natural compounds was screened, using a FRET assay. […] To further clarify the interacting way of SrtA and Tax, recombinant SrtA was reacted with Tax at a concentration of 10-fold IC50. A total of 85.80 ± 0.67% of SrtA activity was subsequently recovered, compared with the control group (DMSO) (Figure 1C).
# FIGURE 1 Inhibition of SrtA transpeptidation. (A) Chemical structure of Tax. (B) Tax inhibits SrtA cleavage of a fluorogenic peptide substrate (Abz-LPATG-Dnp-NH2) in a dose-dependent manner in vitro. Each reaction condition was assayed in triplicate from which the IC50 was determined. (C) Recombinant SrtA was treated with 10 × IC50 of Tax and then diluted, after which transpeptidation activity was measured using a FRET assay. Untreated SrtA (Control) represented 100% activity.
# [1] = system: S. aureus biofilm formation; experiment: Biofilm formation assay (crystal violet); format: cell-based, Staphylococcus aureus; conditions: coculture with 200 μM Tax, 24 h
# Procedure: Bacterial cultures grown overnight were diluted 1:100 in BHI medium supplemented with 3% NaCl and 0.5% glucose. A 200 μL aliquot of each diluted culture was added to separate wells of a 96-well plate, to which different concentrations of Tax (25–200 μM) had been added, then incubated at 37°C for 24 h. Subsequently, the culture medium was replaced with crystal violet to stain the biofilm for 15 min. The wells were then washed thoroughly with sterile deionized PBS three times. The crystal violet stain in each well was decolorized with 200 μL absolute ethanol and then the OD595 value was recorded using a microplate reader.
# (§1) FIGURE 3 Effect of SrtA inhibitor on virulence-related phenotypes in S. aureus Newman strain. (A) Impact of Tax on the ability of S. aureus to adhere to fibrinogen. (B) Biofilm formation of S. aureus in the presence of different concentrations of Tax. (C) Mature biofilms of S. aureus in the presence of different concentrations of Tax. The ΔsrtA group represented the positive control. (D) Tax affects internalization of S. aureus into A549 cells. […] The number of viable S. aureus in the cells was quantified by serial dilution on TSA agar plates. […] Error bars represent means ± SD of three replicates. *P < 0.05, **P < 0.01, ***P < 0.001 calculated with a two-tailed Student’s t-test.
# [2] = system: internalization of S. aureus into A549 cells; experiment: Invasion assay of S. aureus into A549 cells; format: cell-based, Staphylococcus aureus; conditions: 200 μM Tax; P < 0.001
# Procedure: A549 human lung carcinoma cells were seeded at a density of 2.5 × 10^5 per well in 24-well plates and placed in an incubator at 37°C in an atmosphere containing 5% CO2 for 20 h. Cultures of S. aureus were mixed with different concentrations of Tax then cultured at 37°C until an OD600 of 1.0 was achieved. The A549 cells were resuspended in medium and aliquots of bacterial suspension were added to each well to a total concentration of 2 × 10^7°CFU/mL. After incubation for 2 h, the invasion assay was terminated by incubation with 300 μg/mL gentamicin for 30 min. The cells were then lysed after washing and coated on a BHI agar plate. After incubation at 37°C for 12 h, the number of CFUs were counted manually.
# as §1
# [3] = system: S. aureus USA300 pneumonia in C57BL/6J mice; experiment: Murine model of MRSA-induced pneumonia; format: in vivo, mouse
# Procedure: To investigate the therapeutic capability of Tax to treat acute pneumonia infection caused by S. aureus USA300, 6- to 8-week-old female C57BL/6J mice were infected intranasally with 2 × 10^8 CFU of S. aureus USA300, then held upright for 30 s to ensure each animal inhaled the bacteria into their lungs. Two h post-infection, the mice were subcutaneously injected with Tax (100 mg/kg). Similarly, mice were challenged with ΔsrtA and sterile PBS containing 0.5% DMSO (control group) as controls. To assess survival, the mice were checked every 12 h for 96 h, and the percentage that had survived was recorded.
# For bacterial counts in lung tissue and histopathological examination, mice were infected intranasally with 30 μL (1 × 10^8 CFUs) of S. aureus USA300. Tax (100 mg/kg) was then injected subcutaneously every 12 h after inoculation. The bacterial load in the lungs was determined after the mice in each group were sacrificed 48 h post-infection. The left lung from each animal was removed aseptically and processed to count the bacterial CFUs. The right lung of each mouse was aseptically removed and analyzed by conventional hematoxylin and eosin (H&E) staining using an optical microscope. The ratio of wet to dry lung tissue weight (W/D ratio) was recorded in each case. Wet lung weight was measured 1 min after surface moisture had been removed. Dry lung weight was determined after dehydration at 80°C. The W/D ratio is used to reveal the degree of tissue edema ([Xia et al., 2016]).
# FIGURE 6 Effect of treatment with Tax on S. aureus-induced pneumonia in mice. (A) Effect of Tax on the survival of mice (n = 10 per group) infected with a lethal dose of S. aureus. (B) Effect of Tax (100 mg/kg) on bacterial load in the lungs of mice (n = 6). (C) Gross pathological changes and histopathology of mouse lungs treated with Tax (100 mg/kg/d) or untreated. Scale bar: 50 μm. (D) Lung wet-to-dry weight ratio (W/D). Each value represents mean ± SD (n = 5 per group). **P < 0.01, ***P < 0.001; Mann-Whitney test, two-tailed. Horizontal bars represent mean values. Animal data were obtained from two separate experiments.
# T1 sequence (Q2FV99 whole entry): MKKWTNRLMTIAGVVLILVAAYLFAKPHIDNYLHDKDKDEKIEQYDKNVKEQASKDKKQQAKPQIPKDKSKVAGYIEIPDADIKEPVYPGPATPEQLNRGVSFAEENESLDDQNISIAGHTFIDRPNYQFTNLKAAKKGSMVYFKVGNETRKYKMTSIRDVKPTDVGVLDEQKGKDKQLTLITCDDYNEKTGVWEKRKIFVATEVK
smiles,measurement,setting,value
"O=C1c2c(O)cc(O)cc2OC(c2ccc(O)c(O)c2)C1O (stereo not shown) [Tax, taxifolin]",SrtA activity recovered,SrtA,85.80 ± 0.67%
same,"biofilm biomass, % of the mass of the untreated control",[1],29.91 ± 0.51%
same,number of bacteria entering A549 cells,[2],reduced significantly
same,bacterial load in the lungs,"[3]; Tax 100 mg/kg subcutaneous every 12 h, 48 h post-infection",6.73 ± 0.69 lg CFU/g
same,lung histopathology,"[3]; Tax 100 mg/kg, infected mice, H&E staining",significantly reduced inflammation
same,lung wet-to-dry weight ratio (W/D),"[3]; Tax 100 mg/kg, infected mice, P < 0.001",5.35 ± 0.34
same,survival rate of mice,"[3]; lethal dose S. aureus USA300 intranasal, Tax 100 mg/kg subcutaneous, 96 h, p < 0.01",50%

# Source: PMC8290497, “Taxifolin, an Inhibitor of Sortase A, Interferes With the Adhesion of Methicillin-Resistant Staphylococcal aureus” (Frontiers in Microbiology, 2021)
